# Experimental data reported in US7449195B2 (priority 2001, dated 2008).
# Read-outs that look alike come from different tables or passages of the source.
# System: Phytophthora infestans
# Type: in vivo
# Details: individual active compound, tomato leaves, protective, evaluated after 6 days
Compound,Efficacy in % of the untreated control (0.05 ppm in the spray liquor) [%],Efficacy in % of the untreated control (0.1 ppm in the spray liquor) [%],Efficacy in % of the untreated control (0.2 ppm in the spray liquor) [%]
"Cc1ccc(C(C)NC(=O)[C@@H](NC(=O)OC(C)C)C(C)C)cc1 (stereo partly drawn) [II-3, iprovalicarb]",29,53,70
"Cc1ccc(-c2c(Cl)nc(C#N)n2S(=O)(=O)N(C)C)cc1 [Ia, cyazofamid]",53,70,82
